Data on one molecule can be found in US12331051B2 (priority 2021, dated 2025).

Read-outs that look alike come from different tables or passages of the source.

Common to all, as to format: cell-based
Experiment [1] has as its target T1, 5-HT2A receptor (5-HT2AR) (Homo sapiens, UniProt P28223).
T1 construct: expressed in transfected cells; host or cells: HEK-293
Description: Functional assay in HEK-293 cells (IP1). On the procedure:
(§1) Neuro-receptor binding and functional effects of the “E559 polymorph” was examined by analyzing binding affinity [Ki (nM)], functional agonist activity [EC50 (nM)], and functional antagonist activity [IC50 (nM)] against a panel of key receptors in neurophysiological disorders. Binding and functional assays were performed at “E559 polymorph” concentrations of 0.0003, 0.003, 0.01, 0.03, 0.1, 0.3, 1, and 10 μM. In binding assays, cell membrane homogenates, expressing each receptor target, were incubated with the corresponding radio-ligand in absence or presence of several concentration of the “E559 polymorph” compound. The measurement of binding affinity of the “E559 polymorph” is represented in TABLE XIII by Ki (nM) which was calculated as percent inhibition of the binding of a radioactively labeled reference ligand at each receptor. In functional assays the HEK-293 cells expressing each receptor target were suspended in buffer and distribute in microplates and incubated for 30 minutes at room temperature or 37° C. in the presence of buffer alone (basal control), the reference agonist or antagonist, or the “E559 polymorph. Following incubation, the cells were lysed and the appropriate fluorescent probe (Ca2+ flux, cAMP, or IP1) were added for 60 minutes to measure the fluorescence transfer at the appropriate wavelength using a microplate reader. The cellular agonist effect (EC50) was calculated as a percent of control response to a known reference agonist and the cellular antagonist effect (IC50) was calculated as a percent inhibition of control reference agonist response for each receptor.
(§2) The functional agonist activity [EC50 (nM), Emax], and functional antagonist activity [IC50 (nM)] of the 5R:8S stereoisomer of the “E559 polymorph” (5R:8S E558) was compared with the “E559 polymorph” (a 5R:8R stereoisomer) at selected serotonin receptors. The assays were performed as described in Example 6.

Experiment [2] addresses T2, Serotonin 2B receptor (5-HT2BR) (Homo sapiens, UniProt P41595).
T2 construct: expressed in transfected cells; host or cells: HEK-293
Description: Functional assay in HEK-293 cells (IP1). On the procedure: as §1, §2

For experiment [3], the target named is T3, Alpha 1A adrenergic receptor (Homo sapiens, UniProt P35348).
T3 construct: expressed in transfected cells; host or cells: HEK-293
T3 sequence (P35348 1-466): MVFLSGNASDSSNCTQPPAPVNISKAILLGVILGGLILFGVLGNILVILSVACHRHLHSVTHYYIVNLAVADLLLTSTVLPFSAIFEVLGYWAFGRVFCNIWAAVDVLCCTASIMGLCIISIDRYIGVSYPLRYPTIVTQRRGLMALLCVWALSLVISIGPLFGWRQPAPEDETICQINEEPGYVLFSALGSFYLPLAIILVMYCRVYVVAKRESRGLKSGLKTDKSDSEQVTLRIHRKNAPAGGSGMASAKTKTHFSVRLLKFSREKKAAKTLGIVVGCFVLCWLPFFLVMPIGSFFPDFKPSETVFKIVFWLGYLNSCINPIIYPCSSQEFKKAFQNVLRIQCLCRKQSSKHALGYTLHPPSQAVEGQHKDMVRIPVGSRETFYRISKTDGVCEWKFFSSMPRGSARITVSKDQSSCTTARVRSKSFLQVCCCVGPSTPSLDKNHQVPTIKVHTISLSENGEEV
The experiment can be described thus: Functional assay in HEK-293 cells (Ca2+ flux). On the procedure: as §1
In general terms: Calcium flux is commonly read through the fluorescence of an indicator in the cells.

Experiment [4] concerns the target T4, Alpha 2A adrenergic receptor (Homo sapiens, UniProt P08913).
T4 construct: expressed in transfected cells; host or cells: HEK-293
T4 sequence (P08913 1-465): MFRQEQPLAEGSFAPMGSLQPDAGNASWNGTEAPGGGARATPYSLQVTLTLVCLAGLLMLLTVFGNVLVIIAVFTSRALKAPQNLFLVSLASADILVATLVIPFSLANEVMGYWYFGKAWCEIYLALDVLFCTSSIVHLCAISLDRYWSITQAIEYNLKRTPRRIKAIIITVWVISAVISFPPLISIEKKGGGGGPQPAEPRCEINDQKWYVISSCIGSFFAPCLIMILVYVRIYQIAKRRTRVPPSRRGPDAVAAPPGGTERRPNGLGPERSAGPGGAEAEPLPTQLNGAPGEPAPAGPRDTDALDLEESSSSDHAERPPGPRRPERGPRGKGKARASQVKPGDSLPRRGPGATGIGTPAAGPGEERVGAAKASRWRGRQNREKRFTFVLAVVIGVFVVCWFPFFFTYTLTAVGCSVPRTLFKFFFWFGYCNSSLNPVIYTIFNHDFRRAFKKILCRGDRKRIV
The experiment can be described thus: Functional assay in HEK-293 cells (Ca2+ flux). The protocol: as §1

Experiment [5] addresses T5, Serotonin 1A receptor (5-HT1AR) (Homo sapiens, UniProt P08908).
T5 construct: expressed in transfected cells; host or cells: HEK-293
T5 sequence (P08908 1-422): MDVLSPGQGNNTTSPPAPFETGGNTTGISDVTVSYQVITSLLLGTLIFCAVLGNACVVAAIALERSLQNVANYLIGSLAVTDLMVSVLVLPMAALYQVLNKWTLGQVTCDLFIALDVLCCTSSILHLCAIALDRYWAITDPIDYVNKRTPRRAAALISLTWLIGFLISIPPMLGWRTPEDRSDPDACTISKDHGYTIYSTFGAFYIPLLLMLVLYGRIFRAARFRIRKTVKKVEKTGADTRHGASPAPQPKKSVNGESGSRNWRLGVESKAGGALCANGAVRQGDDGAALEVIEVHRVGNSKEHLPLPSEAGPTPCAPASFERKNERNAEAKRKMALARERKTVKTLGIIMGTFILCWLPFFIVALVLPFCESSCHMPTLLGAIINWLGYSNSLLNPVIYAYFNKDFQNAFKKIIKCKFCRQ
The experiment can be described thus: Functional assay in HEK-293 cells (Ca2+ flux). On the procedure:
as §1

The next experiment addresses D1 dopamine receptor (Homo sapiens, UniProt P21728). The experiment can be described thus: Functional assay in HEK-293 cells (cAMP). Set-up: expressed in transfected cells; host or cells: HEK-293. The protocol: Neuro-receptor binding and functional effects of the “E559 polymorph” was examined by analyzing binding affinity [Ki (nM)], functional agonist activity [EC50 (nM)], and functional antagonist activity [IC50 (nM)] against a panel of key receptors in neurophysiological disorders. Binding and functional assays were performed at “E559 polymorph” concentrations of 0.0003, 0.003, 0.01, 0.03, 0.1, 0.3, 1, and 10 μM. In binding assays, cell membrane homogenates, expressing each receptor target, were incubated with the corresponding radio-ligand in absence or presence of several concentration of the “E559 polymorph” compound. The measurement of binding affinity of the “E559 polymorph” is represented in TABLE XIII by Ki (nM) which was calculated as percent inhibition of the binding of a radioactively labeled reference ligand at each receptor. […] Following incubation, the cells were lysed and the appropriate fluorescent probe (Ca2+ flux, cAMP, or IP1) were added for 60 minutes to measure the fluorescence transfer at the appropriate wavelength using a microplate reader. The cellular agonist effect (EC50) was calculated as a percent of control response to a known reference agonist and the cellular antagonist effect (IC50) was calculated as a percent inhibition of control reference agonist response for each receptor.

The mark [6] stands for this setting: HEK293, IP1, ligand 5-HT, read-out: Functional Assay (agonist) Emax.
Setting [7] is: read-out: Funcational Assay (antagonist) IC50, IP1, ligand 5-HT.
Where [8] appears, read: read-out: Functional Assay (agonist) EC50, IP1, ligand 5-HT.

T1 sequence (P28223 whole entry): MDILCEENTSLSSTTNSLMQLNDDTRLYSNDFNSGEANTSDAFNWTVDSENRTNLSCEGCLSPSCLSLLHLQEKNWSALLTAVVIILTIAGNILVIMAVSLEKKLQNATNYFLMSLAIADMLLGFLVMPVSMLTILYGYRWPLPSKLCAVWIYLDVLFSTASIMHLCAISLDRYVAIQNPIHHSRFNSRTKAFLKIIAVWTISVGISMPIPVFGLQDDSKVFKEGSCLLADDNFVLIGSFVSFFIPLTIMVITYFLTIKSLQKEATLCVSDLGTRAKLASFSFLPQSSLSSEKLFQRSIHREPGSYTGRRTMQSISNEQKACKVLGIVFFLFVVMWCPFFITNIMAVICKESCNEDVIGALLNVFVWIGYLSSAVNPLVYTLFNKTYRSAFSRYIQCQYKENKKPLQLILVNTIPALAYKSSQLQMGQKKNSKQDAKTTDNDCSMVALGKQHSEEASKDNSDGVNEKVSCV
T2 sequence (P41595 whole entry): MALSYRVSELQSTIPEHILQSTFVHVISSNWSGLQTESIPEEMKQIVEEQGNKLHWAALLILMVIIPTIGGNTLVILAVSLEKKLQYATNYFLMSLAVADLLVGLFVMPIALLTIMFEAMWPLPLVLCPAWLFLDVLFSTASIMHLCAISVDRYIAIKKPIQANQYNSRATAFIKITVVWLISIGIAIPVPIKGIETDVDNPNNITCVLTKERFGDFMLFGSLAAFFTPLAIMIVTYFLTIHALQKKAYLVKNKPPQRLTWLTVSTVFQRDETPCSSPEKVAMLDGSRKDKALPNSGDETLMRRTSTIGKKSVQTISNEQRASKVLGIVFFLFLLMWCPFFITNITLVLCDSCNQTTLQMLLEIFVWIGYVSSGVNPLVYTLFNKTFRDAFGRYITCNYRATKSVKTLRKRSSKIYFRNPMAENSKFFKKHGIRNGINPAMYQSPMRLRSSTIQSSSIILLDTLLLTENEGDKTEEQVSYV
Chain of D1 dopamine receptor (P21728 whole entry): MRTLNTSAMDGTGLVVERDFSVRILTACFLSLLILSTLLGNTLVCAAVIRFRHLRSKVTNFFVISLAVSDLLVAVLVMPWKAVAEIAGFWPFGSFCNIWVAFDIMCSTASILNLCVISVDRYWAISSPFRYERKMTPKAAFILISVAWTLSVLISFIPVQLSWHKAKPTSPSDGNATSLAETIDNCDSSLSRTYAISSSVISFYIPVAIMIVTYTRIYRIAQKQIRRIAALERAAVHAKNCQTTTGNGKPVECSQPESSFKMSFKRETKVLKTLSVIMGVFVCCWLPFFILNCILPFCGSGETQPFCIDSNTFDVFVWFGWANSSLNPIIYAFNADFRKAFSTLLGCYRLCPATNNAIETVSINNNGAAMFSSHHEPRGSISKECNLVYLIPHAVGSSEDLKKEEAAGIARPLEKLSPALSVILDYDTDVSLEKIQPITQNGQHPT

In the case of `CCN(CC)C(=O)[C@@H]1C=C2c3cccc4[nH]c(Br)c(c34)C[C@H]2N(C)C1` [E559, (5R, 8R)-2-Bromo-9,10-didehydro-N,N-diethyl-6-methylergoline-8-carboxamide hemi-D-tartrate], the EC50 (usually the concentration needed to bring the measured effect to its halfway point) was 0.011 µM in experiment [1]; 0.011 µM in experiment [1] (setting [8]); > 10 µM in experiment [2]; > 10 µM in experiment [2] (setting [8]); 0.051 µM in experiment [3]; > 10 µM in experiment [4]. The EC50 in experiment [5] is 3 µM; on D1 dopamine receptor, > 10 µM. Moreover, the IC50 – broadly, the concentration that inhibits the measured activity by half – in experiment [1] is 0.0249 µM; in experiment [1] (setting [7]), 0.0249 µM; in experiment [2], 0.097 µM; in experiment [2] (setting [7]), 0.097 µM; in experiment [3] it was > 10 µM; in experiment [4], 0.26 µM. The IC50 was > 10 µM in experiment [5] and 0.82 µM on D1 dopamine receptor. Further, the Emax (in general, the size of the effect at its maximum, as opposed to the concentration needed) was 99% in experiment [1] (setting [6]) and 0% in experiment [2] (setting [6]).
